This passage reports DC50 and Dmax results from patent US20250114356A1, “INDAZOLE BASED COMPOUNDS AND ASSOCIATED METHODS OF USE” (Arvinas Operations, Inc., priority 2020, published 2025).

The target of one assay is T1, G2019S LRRK2 (Homo sapiens, UniProt Q5S007, G2019S).
T1 construct: expressed in transfected cells; host or cells: HEK293 (ATCC CRL-1573), transient transfection, ubiquitin promoter
Put plainly: LRRK2 degradation assay, G2019S LRRK2-HiBit expressed from plasmid in HEK293 cells. Type of assay: cell-based. The following applies: HEK293 cells transfected with HiBit-tagged G2019S LRRK2, 24 hours compound incubation. The protocol:
(§1) The assay measures the degradation of wildtype and G2019S LRRK2 tagged with a HiBit tag on the C-terminus of the protein that was expressed from a mammalian expression vector, driven by the ubiquitin promoter in HEK293 cells. Each compound dose-response was repeated on two separate days, on three separate plates each day.
(§2) Plasmid Preparation. Transfection mixes were assembled as follows and incubated for 30 minutes at room temperature. In a 15 mL tube, 5.25 mL Opti-MEM (no additions) was mixed with 17 μL Firefly Luciferase plasmid at 1 μg/μL and 158 μL WT plasmid DNA at 1 μg/μL (175 μg total DNA) were mixed by flicking. In a new 15 mL tube, 5.25 mL OptiMEM was mixed with 17 μL Firefly Luciferase plasmid at 1 μg/μL and 158 μL G2019S plasmid DNA at 1 μg/μL (175 μg total DNA) were mixed by flicking. X-tremeGene HP was mixed thoroughly using a vortex. Next, 175 μL was added to each tube and flicked to mix. Both tubes were left to incubate for 30 minutes at room temperature.
(§3) While the transfection mixes were incubating, HEK293 cells (acquired from ATCC; ATCC CRL-1573) were harvested with trypsin. Once cells are detached, the cells were resuspended in 12 mL OptiMEM+5% FBS and transferred to a 50 mL tube. The cells were mixed well and counted. Using OptiMEM+5% FBS, the cells were diluted in two 250 mL conical tubes at 0.71×10^6 cells/mL in 70 mL. One tube was labeled “WT” and the other “G2019S”. The WT and G2019S transfection mixes were added dropwise to the corresponding 250 mL tubes. The tubes were mixed first by pipetting then by swirling. The tubes were incubated at room temperature for at least 5 minutes.
(§4) Each tube was swirled before dispensing and after every three plates. Seventy microliters of cells were dispensed with WT or G2019S DNA to seven plates each. Three plates of each were tested with compound plate one (preparation described below) and three plates of each were tested with compound plate two (preparation described below). The first plate from each set served as a “prime” plate and was not used to test compounds. Each plate was incubated in the hood for 10 minutes before placing in the 37° C. incubator for 24 hours.
(§5) Preparation of Compound and Assay Plates. Two compound plates were made using 96 well polypropylene plates. Compounds were made up at 10 mM and were diluted to 1 mM in 30 μL. Each dose response curve included a well of DMSO, as a negative control and for normalization, and a well of 0.5 μM of Exemplary Compound 4 as a positive control. In addition to seven test compounds, each plate also included a dose response of Exemplary Compound 4. The compound plates were spun down along at 1200 rpm for 2 minutes.
(§6) The two compound plates were then mixed and 2 μL was diluted in intermediate plates having 248 μL of Opti-Mem in each well. Next, 10 μL diluted compounds from the intermediate plates were added to each test plate (three WT and three G2019S plates per compound plate for a total of 12 assay plates). The plates were incubated for 24 hours at 37° C.
(§7) All assay plates and all Nano-Glo Dual-Luciferase Reporter Assay System components (except for the DLR substrate) were equilibrated to room temperature. Next, the luciferase buffer was mixed with the lyophilized amber bottle until fully dissolved, and 75 μL of the luciferase mixture was added to each well of each assay plate. The assay plates were incubated for 10 minutes at room temperature with shaking for at least 5 minutes, and then read on a plate reader.
(§8) Developing Plates and Analyzing Data. One milliliter of DLR substrate and 1 mL LgBiT Protein were added to the Stop and Glo buffer, and 75 μL of the mixture was added to each well of each plate. Optically clear seals were added to each plate and each plate was incubated for 20 minutes with shaking for at least 10 minutes, and then read on a plate reader. […]
(In general: With HiBiT, luminescence reflects the tagged protein that the partner subunit can reach.)

A further assay deals with T2, wildtype LRRK2 (Homo sapiens, UniProt Q5S007).
T2 construct: expressed in transfected cells; host or cells: HEK293 (ATCC CRL-1573), transient transfection, ubiquitin promoter
T2 sequence (Q5S007 whole entry): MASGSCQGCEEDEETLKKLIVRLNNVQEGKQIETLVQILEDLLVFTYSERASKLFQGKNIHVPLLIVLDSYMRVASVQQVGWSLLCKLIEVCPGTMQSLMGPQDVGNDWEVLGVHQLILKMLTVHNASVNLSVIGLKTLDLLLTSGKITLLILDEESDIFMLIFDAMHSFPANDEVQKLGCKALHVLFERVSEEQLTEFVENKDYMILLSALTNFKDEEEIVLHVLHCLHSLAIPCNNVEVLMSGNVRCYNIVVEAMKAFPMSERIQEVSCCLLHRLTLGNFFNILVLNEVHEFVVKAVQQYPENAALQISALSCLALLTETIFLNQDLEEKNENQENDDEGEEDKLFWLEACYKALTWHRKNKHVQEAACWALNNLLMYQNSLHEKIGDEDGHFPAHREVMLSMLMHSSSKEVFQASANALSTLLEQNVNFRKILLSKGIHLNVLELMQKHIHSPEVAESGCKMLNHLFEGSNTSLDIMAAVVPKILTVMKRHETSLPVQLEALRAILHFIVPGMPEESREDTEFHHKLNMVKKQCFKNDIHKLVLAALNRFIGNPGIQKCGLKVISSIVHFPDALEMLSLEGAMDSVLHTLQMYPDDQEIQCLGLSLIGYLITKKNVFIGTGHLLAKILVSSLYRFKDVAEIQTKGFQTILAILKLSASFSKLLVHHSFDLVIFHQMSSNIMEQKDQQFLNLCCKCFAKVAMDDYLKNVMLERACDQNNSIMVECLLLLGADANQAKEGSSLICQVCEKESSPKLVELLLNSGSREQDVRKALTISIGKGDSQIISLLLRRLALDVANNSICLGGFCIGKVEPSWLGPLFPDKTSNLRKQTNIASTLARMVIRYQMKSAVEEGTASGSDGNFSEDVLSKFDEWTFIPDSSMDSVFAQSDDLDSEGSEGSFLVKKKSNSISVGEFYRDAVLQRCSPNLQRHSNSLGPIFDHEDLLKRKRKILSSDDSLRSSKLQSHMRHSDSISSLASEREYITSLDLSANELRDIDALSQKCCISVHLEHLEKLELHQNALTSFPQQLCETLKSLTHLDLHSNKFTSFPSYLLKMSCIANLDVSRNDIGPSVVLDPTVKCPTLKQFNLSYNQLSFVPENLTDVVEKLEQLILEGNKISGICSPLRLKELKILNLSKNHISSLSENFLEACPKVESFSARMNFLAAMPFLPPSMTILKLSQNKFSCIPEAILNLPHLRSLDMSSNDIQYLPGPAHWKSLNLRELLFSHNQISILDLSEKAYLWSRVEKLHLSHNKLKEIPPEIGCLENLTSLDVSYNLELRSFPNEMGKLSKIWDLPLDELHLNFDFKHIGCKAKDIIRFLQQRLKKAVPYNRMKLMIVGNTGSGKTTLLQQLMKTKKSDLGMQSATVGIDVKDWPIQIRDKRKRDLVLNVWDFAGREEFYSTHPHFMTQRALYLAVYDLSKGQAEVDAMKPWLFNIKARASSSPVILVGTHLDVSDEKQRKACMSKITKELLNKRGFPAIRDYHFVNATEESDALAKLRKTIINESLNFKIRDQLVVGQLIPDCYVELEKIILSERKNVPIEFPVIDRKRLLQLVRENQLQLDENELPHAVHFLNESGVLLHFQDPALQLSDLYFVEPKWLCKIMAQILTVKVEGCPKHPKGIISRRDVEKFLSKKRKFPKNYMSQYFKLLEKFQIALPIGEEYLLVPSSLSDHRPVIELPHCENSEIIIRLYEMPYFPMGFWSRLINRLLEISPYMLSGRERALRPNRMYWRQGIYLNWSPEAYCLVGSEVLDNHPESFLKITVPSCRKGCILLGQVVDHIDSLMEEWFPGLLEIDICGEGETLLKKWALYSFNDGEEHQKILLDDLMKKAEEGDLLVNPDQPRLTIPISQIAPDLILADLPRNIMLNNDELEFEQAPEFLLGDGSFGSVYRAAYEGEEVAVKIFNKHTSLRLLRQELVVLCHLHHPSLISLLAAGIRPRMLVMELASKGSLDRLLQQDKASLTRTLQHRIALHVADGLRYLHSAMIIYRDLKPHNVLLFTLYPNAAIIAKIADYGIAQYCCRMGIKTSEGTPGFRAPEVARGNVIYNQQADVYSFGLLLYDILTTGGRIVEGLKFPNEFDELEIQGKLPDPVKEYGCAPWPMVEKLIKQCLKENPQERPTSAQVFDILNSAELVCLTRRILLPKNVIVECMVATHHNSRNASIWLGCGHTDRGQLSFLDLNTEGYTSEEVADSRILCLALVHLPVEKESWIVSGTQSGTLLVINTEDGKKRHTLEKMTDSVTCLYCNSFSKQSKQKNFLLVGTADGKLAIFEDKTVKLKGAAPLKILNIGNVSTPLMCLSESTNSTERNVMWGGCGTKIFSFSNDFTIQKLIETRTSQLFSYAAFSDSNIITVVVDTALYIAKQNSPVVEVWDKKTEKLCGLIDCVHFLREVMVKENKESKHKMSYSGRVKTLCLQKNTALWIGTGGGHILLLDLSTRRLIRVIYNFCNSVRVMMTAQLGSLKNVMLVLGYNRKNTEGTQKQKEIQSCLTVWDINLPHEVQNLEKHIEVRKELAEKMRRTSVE
Put plainly: LRRK2 degradation assay, wildtype LRRK2-HiBit expressed from plasmid in HEK293 cells. The following applies: HEK293 cells transfected with HiBit-tagged wildtype LRRK2, 24 hours compound incubation; for Dmax: read-out: **WT Dmax (%); for DC50: read-out: *WT DC50. Type of assay: cell-based. The method, then: as §1, §2, §3, §4, §5, §6, §7, §8

T1 sequence (Q5S007 whole entry G2019S): as the sequence (Q5S007 whole entry) above, with G2019S counted along it

Turning to `CC(C)Oc1ccc2[nH]nc(-c3cc(N4CCN(CC5CCN(CC6CCN(c7ccc8c(c7)C(=O)N(C7CCC(=O)NC7=O)C8=O)CC6)CC5)[C@@H](C)C4)ncn3)c2c1` (stereo partly drawn) [compound 25, 2-(2,6-dioxopiperidin-3-yl)-5-{4-[(4-{[(2S)-2-methyl-4-{6-[5-(propan-2-yloxy)-1H-indazol-3-yl]pyrimidin-4-yl}piperazin-1-yl]methyl}piperidin-1-yl)methyl]piperidin-1-yl}-2,3-dihydro-1H-isoindole-1,3-dione], the 50% degradation concentration (DC50) on G2019S LRRK2 and at wildtype LRRK2 was under 10 nM each time. Also, the Dmax at G2019S LRRK2 and on wildtype LRRK2 was at least 70% throughout.
For the compound `CC(C)Oc1ccc2[nH]nc(-c3cc(N4CCN(CCN5CCN(CC6CCN(c7ccc8c(c7)C(=O)N(C7CCC(=O)NC7=O)C8=O)CC6)CC5)[C@@H](C)C4)ncn3)c2c1` (stereo partly drawn) [compound 26, 2-(2,6-dioxopiperidin-3-yl)-5-{4-[(4-{2-[(2S)-2-methyl-4-{6-[5-(propan-2-yloxy)-1H-indazol-3-yl]pyrimidin-4-yl}piperazin-1-yl]ethyl}piperazin-1-yl)methyl]piperidin-1-yl}-2,3-dihydro-1H-isoindole-1,3-dione], the DC50 on G2019S LRRK2 and at wildtype LRRK2 was 10 to 50 nM each time. Besides, the greatest degradation seen (Dmax) on G2019S LRRK2 and on wildtype LRRK2 was at least 70% in each case.
Consider `CC(C)Oc1ccc2[nH]nc(-c3cc(N4CCN(CCN5CCC(CN6CCN(c7ccc8c(c7)C(=O)N(C7CCC(=O)NC7=O)C8=O)CC6)CC5)CC4)ncn3)c2c1` (stereo not drawn) [compound 27, 2-(2,6-dioxopiperidin-3-yl)-5-[4-({1-[2-(4-{6-[5-(propan-2-yloxy)-1H-indazol-3-yl]pyrimidin-4-yl}piperazin-1-yl)ethyl]piperidin-4-yl}methyl)piperazin-1-yl]-2,3-dihydro-1H-isoindole-1,3-dione], for which the DC50 at G2019S LRRK2 and at wildtype LRRK2 was under 10 nM throughout. Further, the Dmax on G2019S LRRK2 and at wildtype LRRK2 was at least 70% throughout.
As to `CC1(Oc2ccc3[nH]nc(-c4cc(N5CCN(CCN6CCC(CN7CCN(c8ccc9c(c8)C(=O)N(C8CCC(=O)NC8=O)C9=O)CC7)CC6)CC5)ncn4)c3c2)CC1` (stereo not drawn) [compound 28, 2-(2,6-dioxopiperidin-3-yl)-5-[4-({1-[2-(4-{6-[5-(1-methylcyclopropoxy)-1H-indazol-3-yl]pyrimidin-4-yl}piperazin-1-yl)ethyl]piperidin-4-yl}methyl)piperazin-1-yl]-2,3-dihydro-1H-isoindole-1,3-dione], at G2019S LRRK2, the DC50 – broadly, the concentration at which degradation of the target reaches its halfway point – was under 10 nM and the Dmax (as a rule, the largest share of the target that was removed) was at least 70%. Besides, at wildtype LRRK2, the Dmax is at least 70% and the DC50 was under 10 nM.
In the case of `C[C@H]1CN(c2cc(-c3n[nH]c4ccc(OC5(C)CC5)cc34)ncn2)CCN1CCN1CCC(CN2CCN(c3ccc4c(c3)C(=O)N(C3CCC(=O)NC3=O)C4=O)CC2)CC1` (stereo partly drawn) [compound 29, 2-(2,6-dioxopiperidin-3-yl)-5-{4-[(1-{2-[(2S)-2-methyl-4-{6-[5-(1-methylcyclopropoxy)-1H-indazol-3-yl]pyrimidin-4-yl}piperazin-1-yl]ethyl}piperidin-4-yl)methyl]piperazin-1-yl}-2,3-dihydro-1H-isoindole-1,3-dione], at G2019S LRRK2, the DC50 was under 10 nM and the maximal degradation (Dmax) was at least 70%. Also, at wildtype LRRK2, the Dmax is at least 70% and the DC50 is under 10 nM.
`CC(C)Oc1ccc2[nH]nc(-c3cc(N4CCN(CCN5CCC(CN6CCN(c7ccc8c(c7)C(=O)N(C7CCC(=O)NC7=O)C8=O)CC6)CC5)[C@@H](C)C4)ncn3)c2c1` (stereo partly drawn) [compound 30, 2-(2,6-dioxopiperidin-3-yl)-5-{4-[(1-{2-[(2S)-2-methyl-4-{6-[5-(propan-2-yloxy)-1H-indazol-3-yl]pyrimidin-4-yl}piperazin-1-yl]ethyl}piperidin-4-yl)methyl]piperazin-1-yl}-2,3-dihydro-1H-isoindole-1,3-dione]: the DC50 on G2019S LRRK2 and on wildtype LRRK2 was under 10 nM throughout. For the same compound, the maximal degradation (Dmax) at G2019S LRRK2 and at wildtype LRRK2 was at least 70% throughout.
